Among the data in US8329721B2, “Hydroxy and alkoxy substituted 1H-imidazonaphthyridines and methods” (3M Innovative Properties Company, priority 2006, dated 2012) are melting point values, retold here.

The structures appear in SMILES notation.

`Nc1nc2cccnc2c2c1nc(O)n2Cc1ccccc1` [Example 2, 4-Amino-1-benzyl-1H-imidazo[4,5-c][1,5]naphthyridin-2-ol] registered a melting point above 250 °C.

Take `CCOc1nc2c(N)nc3cccnc3c2n1CC1CCOCC1` [Example 3, 2-Ethoxy-1-(tetrahydro-2H-pyran-4-ylmethyl)-1H-imidazo[4,5-c][1,5]naphthyridin-4-amine]: the melting point was in the range of 197 to 200 °C.

`Nc1nc2cccnc2c2c1nc(O)n2CC1CCOCC1` [Example 4, 4-Amino-1-(tetrahydro-2H-pyran-4-ylmethyl)-1H-imidazo[4,5-c][1,5]naphthyridin-2-ol] yielded a melting point of 250 to 260 °C.

Compound `CCOc1nc2c(N)nc3cccnc3c2n1[C@@H](C)c1ccccc1` [Example 5, 2-Ethoxy-1-[(1S)-1-phenylethyl]-1H-imidazo[4,5-c][1,5]naphthyridin-4-amine] gave a melting point of 187 to 190 °C.

As for `C[C@@H](c1ccccc1)n1c(O)nc2c(N)nc3cccnc3c21` [Example 6, 4-amino-1-[(1S)-1-phenylethyl]-1H-imidazo[4,5-c][1,5]naphthyridin-2-ol], the melting point lay within 241 to 243 °C.

As a reminder, the melting point is the temperature of the solid-liquid transition.
